Reference: ChEMBL document CHEMBL1201862, “PubChem BioAssay data set” (2004)
Calls of active or inactive are those of the source.

What was measured:
Major prion protein = Major prion protein (Homo sapiens, UniProt P04156); format: functional, cell-based
[1] = blockers of HIV-1 ZM109 envelope-driven cell-cell fusion – HeLa effector, CEM target cells, luciferase, cherry-pick, dose response (AID 652058); format: functional, cell-based;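 further: luciferase signal from HIV-1 Env mediated cell-cell fusion of effector and target cells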
[2] = HIV-1 AD8 envelope cell-cell fusion blockers – cherry-pick, dose response (AID 652062); format: functional, cell-based;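 further: luciferase signal from cell-cell fusion driven by HIV-1 clade B AD8 Env; potency is for inhibitors of fusion seen as a drop in luminescence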
Prothrombin = Prothrombin (Homo sapiens, UniProt P00734); assay: Thrombin 1536 HTS Dose Response Confirmation. [Related pubchem assays: 1046 (Thrombin 1536 HTS; hits were confirmed in this assay)]; format: functional
Estrogen receptor beta = Estrogen receptor beta (Homo sapiens, UniProt Q92731);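 further: recombinant ER-beta bound to coactivator SRC1 peptide in presence of estradiol agonist; inhibitors block coactivator peptide binding and lower the FRET signal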
Chain of Estrogen receptor beta (Q92731 whole entry): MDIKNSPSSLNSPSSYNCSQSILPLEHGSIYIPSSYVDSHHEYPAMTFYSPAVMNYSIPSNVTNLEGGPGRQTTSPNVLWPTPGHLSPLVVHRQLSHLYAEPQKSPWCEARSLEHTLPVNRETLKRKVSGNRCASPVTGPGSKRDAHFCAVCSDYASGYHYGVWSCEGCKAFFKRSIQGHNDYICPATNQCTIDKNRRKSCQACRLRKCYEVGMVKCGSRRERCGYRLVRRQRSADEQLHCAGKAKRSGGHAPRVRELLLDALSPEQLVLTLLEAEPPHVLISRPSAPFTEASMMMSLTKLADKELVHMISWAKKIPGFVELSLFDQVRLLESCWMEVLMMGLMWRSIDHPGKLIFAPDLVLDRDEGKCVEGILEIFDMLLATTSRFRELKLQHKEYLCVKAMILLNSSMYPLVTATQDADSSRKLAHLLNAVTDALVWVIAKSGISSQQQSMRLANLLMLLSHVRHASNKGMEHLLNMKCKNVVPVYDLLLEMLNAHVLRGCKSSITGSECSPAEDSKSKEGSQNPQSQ

[3] = biological target: FAD-linked sulfhydryl oxidase ALR (Homo sapiens, UniProt P55789); assay: ALR-catalysed DTT oxidation blockers – biochemical, H2O2 detection, luminescence, cherry-pick, dose response (AID 493248)
Chain of FAD-linked sulfhydryl oxidase ALR (P55789 whole entry): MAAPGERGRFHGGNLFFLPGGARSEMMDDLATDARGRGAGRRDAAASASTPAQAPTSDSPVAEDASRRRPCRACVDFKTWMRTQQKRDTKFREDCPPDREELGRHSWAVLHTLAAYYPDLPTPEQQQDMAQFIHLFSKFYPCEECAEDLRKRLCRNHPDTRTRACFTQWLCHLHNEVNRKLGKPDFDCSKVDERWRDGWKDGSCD

Protein RecA = biological target: T1, Protein RecA (Mycobacterium tuberculosis, UniProt P9WHJ3); assay: Fluorescence Cell-Free Homogeneous Dose Retest to Identify Inhibitors of RecA-Intein Splicing Activity. [Related pubchem assays (depositor defined):AID2097, AID2223, AID489010, AID492950]; format: functional
T1 sequence (P9WHJ3 whole entry): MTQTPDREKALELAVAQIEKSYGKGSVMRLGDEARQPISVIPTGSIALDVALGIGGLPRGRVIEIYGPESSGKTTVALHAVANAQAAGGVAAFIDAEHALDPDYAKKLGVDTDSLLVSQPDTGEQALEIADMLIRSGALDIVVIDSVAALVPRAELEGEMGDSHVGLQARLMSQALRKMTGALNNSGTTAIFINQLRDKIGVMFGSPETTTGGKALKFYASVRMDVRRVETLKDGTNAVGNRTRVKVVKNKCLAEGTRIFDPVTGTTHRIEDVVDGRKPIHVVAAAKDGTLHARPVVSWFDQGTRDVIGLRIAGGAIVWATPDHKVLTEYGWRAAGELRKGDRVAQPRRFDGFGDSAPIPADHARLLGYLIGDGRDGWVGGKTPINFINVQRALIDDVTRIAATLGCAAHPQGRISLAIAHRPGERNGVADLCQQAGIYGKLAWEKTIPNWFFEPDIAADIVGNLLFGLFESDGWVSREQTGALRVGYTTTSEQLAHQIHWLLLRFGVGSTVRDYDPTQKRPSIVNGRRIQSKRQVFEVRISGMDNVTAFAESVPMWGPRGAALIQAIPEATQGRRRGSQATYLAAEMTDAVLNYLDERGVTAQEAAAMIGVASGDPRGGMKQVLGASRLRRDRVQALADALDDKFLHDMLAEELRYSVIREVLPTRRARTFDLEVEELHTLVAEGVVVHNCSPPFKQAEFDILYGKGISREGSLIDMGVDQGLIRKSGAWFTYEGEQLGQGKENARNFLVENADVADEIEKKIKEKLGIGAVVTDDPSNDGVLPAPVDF

[4] = biological target: Glucose-6-phosphate 1-dehydrogenase (Homo sapiens, UniProt P11413); assay: inhibition of Homo sapiens G6PD, dose series – biochemical, fluorescence, selectivity assay for P. falciparum G6PD inhibitor project, dose response (AID 504792); format: functional
Chain of Glucose-6-phosphate 1-dehydrogenase (P11413 whole entry): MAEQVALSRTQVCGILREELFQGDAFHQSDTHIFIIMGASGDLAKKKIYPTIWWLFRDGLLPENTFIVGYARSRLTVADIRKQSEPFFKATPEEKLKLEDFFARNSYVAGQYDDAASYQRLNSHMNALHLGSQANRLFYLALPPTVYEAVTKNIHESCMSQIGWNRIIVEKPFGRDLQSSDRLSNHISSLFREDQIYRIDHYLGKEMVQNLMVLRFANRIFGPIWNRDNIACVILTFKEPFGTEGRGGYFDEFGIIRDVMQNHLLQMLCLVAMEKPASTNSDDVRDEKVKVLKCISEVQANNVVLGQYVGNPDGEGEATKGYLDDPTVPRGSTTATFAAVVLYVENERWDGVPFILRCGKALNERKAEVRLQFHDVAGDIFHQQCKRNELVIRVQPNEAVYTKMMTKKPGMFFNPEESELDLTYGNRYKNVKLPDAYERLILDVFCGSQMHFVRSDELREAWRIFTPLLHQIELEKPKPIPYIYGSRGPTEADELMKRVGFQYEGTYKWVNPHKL

[5] = biological target: T2, Replicative DNA helicase DnaB (Mycobacterium tuberculosis, UniProt P9WMR3); assay: DnaB intein splicing inhibitors, dose response, biochemical, cell-free fluorescence (AID 449749); format: functional
T2 sequence (P9WMR3 whole entry): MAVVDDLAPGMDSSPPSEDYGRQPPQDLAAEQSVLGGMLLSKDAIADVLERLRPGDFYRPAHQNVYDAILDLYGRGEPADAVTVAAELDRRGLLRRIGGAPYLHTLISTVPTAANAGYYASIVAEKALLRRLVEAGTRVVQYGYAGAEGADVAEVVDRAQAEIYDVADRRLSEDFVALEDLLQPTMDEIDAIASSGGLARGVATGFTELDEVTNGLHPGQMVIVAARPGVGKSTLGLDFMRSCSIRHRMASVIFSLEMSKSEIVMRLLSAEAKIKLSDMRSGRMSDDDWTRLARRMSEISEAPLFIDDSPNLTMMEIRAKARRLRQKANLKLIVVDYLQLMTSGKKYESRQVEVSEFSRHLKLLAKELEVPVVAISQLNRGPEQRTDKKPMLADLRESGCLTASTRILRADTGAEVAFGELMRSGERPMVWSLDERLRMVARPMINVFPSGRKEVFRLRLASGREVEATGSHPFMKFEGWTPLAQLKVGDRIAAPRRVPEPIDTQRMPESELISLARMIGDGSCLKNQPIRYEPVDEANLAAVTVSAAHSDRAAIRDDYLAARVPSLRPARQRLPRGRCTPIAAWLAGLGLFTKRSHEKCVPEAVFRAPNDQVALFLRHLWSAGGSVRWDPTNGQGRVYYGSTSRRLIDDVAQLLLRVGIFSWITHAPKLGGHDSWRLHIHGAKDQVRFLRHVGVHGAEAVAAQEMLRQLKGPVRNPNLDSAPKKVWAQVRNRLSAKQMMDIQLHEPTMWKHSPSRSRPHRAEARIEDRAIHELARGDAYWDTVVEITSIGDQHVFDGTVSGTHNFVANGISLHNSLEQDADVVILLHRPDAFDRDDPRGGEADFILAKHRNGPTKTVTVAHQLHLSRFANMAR

Vero = assay: viability of Vero cells under compound – cytotoxicity control for flavivirus capping enzyme inhibitors (AID 588742); format: functional; settings: Chlorocebus sabaeus
Genome polyprotein = Genome polyprotein (dengue virus type 2, UniProt P29990); assay: flavivirus cap methylation enzyme inhibition – biochemical, confirmation dose response, primary screen (AID 588689); format: functional
Chain of Genome polyprotein (P29990 2492-3391 limits assumed): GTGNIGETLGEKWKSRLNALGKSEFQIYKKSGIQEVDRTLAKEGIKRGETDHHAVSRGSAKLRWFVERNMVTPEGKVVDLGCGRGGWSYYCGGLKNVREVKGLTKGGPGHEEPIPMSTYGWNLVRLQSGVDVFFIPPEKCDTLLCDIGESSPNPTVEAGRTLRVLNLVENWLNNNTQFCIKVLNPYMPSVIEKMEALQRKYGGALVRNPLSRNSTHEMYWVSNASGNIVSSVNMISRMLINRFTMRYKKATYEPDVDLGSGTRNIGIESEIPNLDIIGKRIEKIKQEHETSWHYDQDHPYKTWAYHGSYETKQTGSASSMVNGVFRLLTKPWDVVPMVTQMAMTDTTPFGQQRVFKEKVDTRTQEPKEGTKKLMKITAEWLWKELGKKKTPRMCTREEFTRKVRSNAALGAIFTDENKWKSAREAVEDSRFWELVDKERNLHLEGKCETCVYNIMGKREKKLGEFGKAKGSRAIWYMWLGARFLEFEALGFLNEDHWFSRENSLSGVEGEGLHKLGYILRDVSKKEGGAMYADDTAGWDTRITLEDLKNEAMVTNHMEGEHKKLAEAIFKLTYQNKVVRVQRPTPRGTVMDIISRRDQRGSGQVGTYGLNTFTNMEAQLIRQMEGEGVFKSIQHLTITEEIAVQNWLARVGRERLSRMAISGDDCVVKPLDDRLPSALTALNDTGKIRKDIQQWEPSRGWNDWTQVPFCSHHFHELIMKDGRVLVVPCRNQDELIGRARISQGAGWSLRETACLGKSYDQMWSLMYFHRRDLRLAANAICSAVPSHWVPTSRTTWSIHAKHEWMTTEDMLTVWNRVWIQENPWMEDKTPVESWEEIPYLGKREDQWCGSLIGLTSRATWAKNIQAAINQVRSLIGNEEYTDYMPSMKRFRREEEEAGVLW

[6] = A549 cell cytotoxicity, dose response, cytotoxicity control, plate reader, cherry-pick, antagonist series (AID 743412); format: functional, cell-based
[7] = blockers of bursicon-stimulated LGR2 cAMP reporter – cell-based, HEK293, CRE-luciferase reporter, cherry pick, set 2, dose response (AID 743343); format: functional;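 further: transfected cells were stimulated with diluted bursicon conditioned medium after compound addition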
[8] = toxicity toward HepG2 liver cells – cell-based, plate reader, cherry-pick, antagonist series, cytotoxicity control, dose response (AID 743416); format: functional
[9] = fluconazole-exposed Candida albicans growth modulators – fluorescence, retest, confirmation (AID 2467); format: functional, cell-based
[10] = biological target: T3, Mannose-6-phosphate isomerase (Homo sapiens, UniProt P34949); assay: MPI inhibition at elevated mannose 6-phosphate – biochemical, fluorescence intensity, high mannose 6-phosphate, primary screen (AID 1220)
T3 sequence (P34949 whole entry): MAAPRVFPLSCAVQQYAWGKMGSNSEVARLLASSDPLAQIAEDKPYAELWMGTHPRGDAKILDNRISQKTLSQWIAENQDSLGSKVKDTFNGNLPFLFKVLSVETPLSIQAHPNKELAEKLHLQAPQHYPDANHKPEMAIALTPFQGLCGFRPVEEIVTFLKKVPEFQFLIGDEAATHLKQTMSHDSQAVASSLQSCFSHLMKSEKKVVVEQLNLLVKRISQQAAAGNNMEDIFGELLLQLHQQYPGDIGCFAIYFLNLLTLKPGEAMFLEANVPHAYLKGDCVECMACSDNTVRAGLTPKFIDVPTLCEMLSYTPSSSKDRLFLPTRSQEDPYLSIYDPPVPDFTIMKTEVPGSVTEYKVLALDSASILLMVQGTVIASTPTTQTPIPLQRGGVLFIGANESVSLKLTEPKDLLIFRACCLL

[11] = NIH-3T3 fibroblast cytotoxicity, dose response, cytotoxicity control, cell-based, fluorescence, Alamar Blue, secondary assay (AID 2327); format: functional;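 further: NIH-3T3 mouse fibroblasts cultured with fluconazole at 8 µg/mL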
[12] = biological target: Induced myeloid leukemia cell differentiation protein Mcl-1 (Homo sapiens, UniProt Q07820); format: functional
Chain of Induced myeloid leukemia cell differentiation protein Mcl-1 (Q07820 whole entry): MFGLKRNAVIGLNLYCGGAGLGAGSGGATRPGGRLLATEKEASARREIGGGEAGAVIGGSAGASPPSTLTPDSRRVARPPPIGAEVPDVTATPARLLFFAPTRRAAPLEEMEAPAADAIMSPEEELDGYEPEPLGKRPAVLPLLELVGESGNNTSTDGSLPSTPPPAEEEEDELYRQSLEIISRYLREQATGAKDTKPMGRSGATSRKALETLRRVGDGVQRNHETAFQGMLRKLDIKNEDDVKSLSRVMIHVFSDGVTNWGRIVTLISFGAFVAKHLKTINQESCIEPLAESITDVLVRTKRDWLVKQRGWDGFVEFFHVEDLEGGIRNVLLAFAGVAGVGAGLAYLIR

[13] = biological target: T4, Apoptotic protease-activating factor 1 (Homo sapiens, UniProt O14727); format: functional
T4 sequence (O14727 whole entry): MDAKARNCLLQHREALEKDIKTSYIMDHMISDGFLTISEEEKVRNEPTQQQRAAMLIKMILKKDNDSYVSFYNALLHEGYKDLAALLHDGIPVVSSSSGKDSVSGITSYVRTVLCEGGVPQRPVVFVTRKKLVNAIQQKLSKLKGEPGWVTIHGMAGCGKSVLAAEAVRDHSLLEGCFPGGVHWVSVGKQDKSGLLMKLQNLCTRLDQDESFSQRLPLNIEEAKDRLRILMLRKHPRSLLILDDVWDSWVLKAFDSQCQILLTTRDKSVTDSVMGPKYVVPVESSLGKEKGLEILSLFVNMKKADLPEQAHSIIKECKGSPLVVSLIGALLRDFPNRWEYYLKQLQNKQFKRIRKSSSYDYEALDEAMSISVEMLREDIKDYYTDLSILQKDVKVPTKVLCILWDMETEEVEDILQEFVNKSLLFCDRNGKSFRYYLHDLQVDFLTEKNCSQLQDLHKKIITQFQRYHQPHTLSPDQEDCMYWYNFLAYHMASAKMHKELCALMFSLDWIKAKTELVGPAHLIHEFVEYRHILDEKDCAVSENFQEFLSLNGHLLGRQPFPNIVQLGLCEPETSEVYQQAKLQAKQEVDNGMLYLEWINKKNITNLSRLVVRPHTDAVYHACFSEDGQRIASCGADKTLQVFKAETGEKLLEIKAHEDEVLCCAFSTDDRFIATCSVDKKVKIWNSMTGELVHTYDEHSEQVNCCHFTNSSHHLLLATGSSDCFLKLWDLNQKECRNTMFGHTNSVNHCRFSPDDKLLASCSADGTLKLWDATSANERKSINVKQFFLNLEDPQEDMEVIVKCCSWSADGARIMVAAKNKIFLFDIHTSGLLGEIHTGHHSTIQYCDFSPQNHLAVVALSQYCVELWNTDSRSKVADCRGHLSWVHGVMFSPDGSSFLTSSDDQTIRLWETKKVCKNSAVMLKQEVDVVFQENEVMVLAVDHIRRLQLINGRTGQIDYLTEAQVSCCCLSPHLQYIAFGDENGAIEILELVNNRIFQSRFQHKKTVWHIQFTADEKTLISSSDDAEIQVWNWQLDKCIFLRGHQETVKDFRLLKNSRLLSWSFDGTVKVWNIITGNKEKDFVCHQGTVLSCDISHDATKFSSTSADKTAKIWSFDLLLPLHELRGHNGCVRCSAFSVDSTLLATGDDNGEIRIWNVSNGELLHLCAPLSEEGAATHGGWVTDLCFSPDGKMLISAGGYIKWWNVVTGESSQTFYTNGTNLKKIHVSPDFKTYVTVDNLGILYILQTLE

[14] = blockers of HIV-1 envelope-mediated cell-cell fusion – cherry-pick, dose response (AID 652057); format: functional, cell-based

Compound: CCOc1ccc(C(=O)C2=C(O)C(=O)N(c3ccccn3)C2c2ccc(F)cc2)c(C)c1 (stereo unspecified)
- IC50 (Major prion protein): 13 µM (inactive)
- IC50 (cells): > 138 µM (inactive)

Compound: c1ccc2c(c1)OCC(CNc1[nH]cnc3ncnc1-3)O2 (stereo unspecified)
- AC50 [1]: 7.15 µM (active)
- AC50 [2]: 2.64 µM (active)

Compound: CCn1cc(C(=O)NCc2ccc(Cl)cc2)c(=O)c2cc(S(=O)(=O)N3CCOCC3)ccc21
- IC50 (Prothrombin): 8.07 µM (active)

Compound: Sc1nc(Cc2ccc(Cl)cc2)nc2ccccc12
- IC50 (Major prion protein): 7.46 µM (active)
- IC50 (cells): > 138 µM (inactive)

Compound: Cc1cccc(NC(=S)NC(=O)/C=C/c2ccccc2)n1
- IC50 (Prothrombin): > 50 µM (not active)

Compound: O=C1OC(Nc2ccc3c(c2)OCO3)c2ccccc21 (stereo unspecified)
- IC50 (Estrogen receptor beta): > 50 µM (not active)
- AC50 [3]: 0.577 µM (active)

Compound: Cc1c(-c2cccs2)[n+]([O-])c2c([n+]1[O-])CCC2
- IC50 (Prothrombin): > 50 µM (not active)

Compound: Nc1cc(N)c(OCC(F)(F)F)cc1OCC(F)(F)F
- EC50 (Protein RecA): 4.82 µM (active)
- IC50 [4]: 32.7 µM (inactive)
- AC50 [5]: 7.43 µM (active)

Compound: CC(C)c1nc(SCC(=O)Nc2nc3c(s2)CCCC3)c2ccccc2n1
- IC50 (Major prion protein): 5.97 µM (active)
- IC50 (cells): > 138 µM (inactive)

Compound: O=C1C2C3C=CC(C3)C2C(=O)N1c1cccc2cccnc12 (stereo unspecified)
- IC50 (Estrogen receptor beta): 21.4 µM (active)

Compound: Cc1ccc(S(=O)(=O)N2[C@@H](c3cccc(Cl)c3)C(C(=O)O)=CC[C@H]2c2ccc(Cl)c(Cl)c2)cc1
- CC50 (Vero): > 40 µM (active)
- IC50 (Genome polyprotein): 57.9 µM (active)

Compound: Cc1cnc(NC(=O)c2cc(S(=O)(=O)N(C)C)ccc2N2CCCC2)s1
- IC50 (Major prion protein): 2.87 µM (active)
- IC50 (cells): > 138 µM (inactive)

Compound: O=C(O)C1=CC[C@@H](c2ccc(Cl)cc2)N(S(=O)(=O)c2ccc(Cl)cc2)[C@H]1c1ccc(Br)cc1
- CC50 (Vero): > 40 µM (active)
- IC50 (Genome polyprotein): 36.5 µM (active)

Compound: COc1ccc(C(=O)CC(Sc2ccccc2N)c2ccc(OC)cc2)cc1 (stereo unspecified)
- AC50 [6]: 48.4 µM (active)
- AC50 [7]: 28.7 µM (active)
- AC50 [8]: > 52 µM (inactive)

Compound: CCOC(=O)COc1cc(Br)c(/C=N/Nc2ccccc2)cc1OC
- IC50 (Major prion protein): 16.4 µM (inactive)
- IC50 (cells): > 138 µM (inactive)

Compound: O=[N+]([O-])c1ccc(N/N=C/c2ccc(O)c(O)c2O)c(S(=O)(=O)N2CCOCC2)c1
- EC50 [9]: > 38 µM (not active)
- IC50 [10]: > 50 µM (not active)
- EC50 [11]: 24.9 µM (active)
- IC50 [4]: 55.6 µM (inactive)
- IC50 [12]: 2.98 µM (active)
- IC50 (Genome polyprotein): 4.6 µM (active)
- IC50 [13]: 21.4 µM (active)

Compound: COc1ccc(NC(=O)Nc2ccc3c(c2)C(=O)N([C@H](C)CO)C[C@H](C)[C@H](CN(C)CC2CC2)OCCCC[C@H](C)O3)cc1
- AC50 [1]: 26.5 µM (active)
- AC50 [2]: 23.5 µM (active)
- AC50 [14]: 25.9 µM (active)

Compound: C[C@H](CO)N1C[C@H](C)[C@H](CN(C)Cc2cccnc2)OCc2ccccc2-c2c(n(C)c3ccccc23)C1=O
- AC50 [1]: 1.21 µM (active)
- AC50 [2]: 0.805 µM (active)
- AC50 [14]: 15.6 µM (active)
